Values of other authors in US20220160649A1, “PHARMACEUTICAL COMPOSITION” (priority 2019, published 2022).

Details: stated as well known

solubility in water: almost insoluble
SMILES: Oc1ccc(/C=C/c2cc(O)cc(O)c2)cc1 [resveratrol (IIIA), resveratrol]
